Reference: US12391674B2, “Heterocyclic compounds for the treatment of epilepsy” (OTSUKA PHARMACEUTICAL CO., LTD., priority 2018, dated 2025)
Where a name gives a salt, the structure may show the parent alone. Read-outs that look alike come from different tables or passages of the source.

Tested on: DBA/2 mice
Assay: Audiogenic seizure model
Assay type: in vivo
Conditions: Mus musculus, read-out: Seizure suppression
Experimental: The animal model used in this test is a phenotype model for partial seizure (including secondary generalized seizure) and generalized tonic-clonic seizure, and has high clinical predictability. This test was performed in accordance with the report of De Sarro et al (Br J Pharmacol. 1988 February; 93 (2): 247-56. Anticonvulsant effects of some calcium entry blockers in DBA/2 mice. De Sarro G B, Meldrum B S, Nistico G.).
In this test example, the example compounds shown in Tables 3-1 to 3-3 below were used as test compounds.
The test compounds were suspended in 5% gum arabic/distilled water (w/v), and administered by forced oral administration to male and female DBA/2 mice (Japan SLC, Inc., 3 weeks old, 8 per group) at a dose of 30 mg/kg. After one hour of the oral administration of the test compound, each mouse was placed in a transparent acrylic cylinder 30 cm high and 23 cm in diameter, and 30 seconds were allowed for habituation. Then, they were exposed to auditory stimulation (12.6 kHz, 100-110 dB) for 1 minute or until a tonic seizure occurred.
The seizure response was assessed using the following scale, 0: no seizure, 1: wild running, 2: clonic seizure, 3: tonic seizure and 4: respiratory arrest. The maximum response was recorded as the seizure severity score.
The seizure suppression rate for each compound administration group was calculated according to the following formula.
Here, a rate of seizure suppression of 90% or more was expressed as “A”, a rate of seizure suppression of 70% or more and less than 90% was expressed as “B”, and a rate of seizure suppression of 50% or more and less than 70% was expressed as “C”.

[1] = DBA/2 mice, oral, dose 30 mg/kg, auditory stimulation 1 hour after administration
[2] = DBA/2 mice, oral, auditory stimulation 1 hour after administration

For `FC(F)c1ccc(-c2cnc(Oc3ccccc3)nc2)cn1` [Example 37], the inhibition in vivo at 30 mg/kg [1] was > 90%.
`Fc1ccc(Oc2ncc(-c3ccc4nccn4c3)cn2)cc1F` [Example 168] was tested, and the inhibition in vivo at 5 mg/kg [2] was > 90%.
In the case of `Fc1ccccc1Oc1ncc(-c2ccc3nncn3n2)cn1` [Example 290], the inhibition in vivo at 30 mg/kg [1] is reported as > 90%.
For `Cc1ccc(-c2cnc(Oc3cccc(C(F)(F)F)c3)nc2)nn1` [Example 13], the inhibition in vivo at 3 mg/kg (DBA/2 mice, oral, dose 3 mg/kg, auditory stimulation 1 hour after administration) was > 90%.
With `COc1nc(Oc2ccccc2)ncc1-c1ccc2nccn2n1` [Example 160] the inhibition in vivo at 30 mg/kg [1] was > 90%.
`O=C1CCN(c2cccc(Oc3ccc(F)cc3)c2)C(=O)N1` [Example 315] gave an inhibition in vivo at 30 mg/kg [1] of 70 to 90%.
In the case of `N#Cc1cccc(Oc2ncc(-c3ccc(=O)[nH]n3)cn2)c1` [Example 112], the inhibition in vivo at 30 mg/kg [1] is reported as > 90%.
`O=C1CCN(c2ccc(Cc3cccc(OC(F)(F)F)c3)cc2)C(=O)N1` [Example 339] gave an inhibition in vivo at 30 mg/kg [1] of 70 to 90%.
For `Fc1cccc(Oc2ncc(-c3ccc4ccnn4c3)cn2)c1` [Example 153], the inhibition in vivo at 30 mg/kg [1] was > 90%.
For `O=C1Cc2cc(-c3cnc(Oc4ccccc4F)nc3)ccc2N1` [Example 264], the inhibition in vivo at 5 mg/kg [2] was > 90% and the inhibition in vivo at 30 mg/kg [1] was > 90%.
`Cc1nc(Oc2ccccc2)ccc1N1CCC(=O)NC1=O` [Example 326] gave an inhibition in vivo at 30 mg/kg [1] of 50 to 70%.
For `O=c1[nH]nccc1-c1cnc(Oc2cccc(F)c2)nc1` [Example 115], the inhibition in vivo at 30 mg/kg [1] was > 90%.
With `Fc1cccc(F)c1Oc1ncc(-c2ccc3nccn3c2)cn1` [Example 167] the inhibition in vivo at 5 mg/kg [2] was > 90%.
In the case of `Fc1cccc(Oc2ncc(-c3ccc(C(F)(F)F)nn3)cn2)c1` [Example 46], the inhibition in vivo at 30 mg/kg [1] is reported as > 90%.
With `Cc1ncccc1-c1cnc(Oc2c(F)cccc2F)nc1` [Example 54] the inhibition in vivo at 30 mg/kg [1] was > 90%.
For `Fc1ccc(Oc2ncc(-c3ccc4nccn4n3)cn2)cc1` [Example 126], the inhibition in vivo at 30 mg/kg [1] was > 90%.
With `Fc1cccc(Oc2ncc(-c3ccc4nnc(C(F)(F)F)n4c3)cn2)c1` [Example 281] the inhibition in vivo at 30 mg/kg [1] was > 90%.
For `[O-][n+]1cccc(-c2cnc(Oc3ccc(F)cc3)nc2)c1` [Example 62], the inhibition in vivo at 30 mg/kg [1] was > 90%.
`Nc1ccc(-c2cnc(Oc3ccc(F)cc3)nc2)nn1` [Example 20] was tested, and the inhibition in vivo at 30 mg/kg [1] was > 90%.
With `Cc1ccc(-c2cnc(Oc3cc(F)cc(F)c3)nc2)nn1` [Example 17] the inhibition in vivo at 30 mg/kg [1] was > 90%.
With `Fc1cccc(Oc2ncc(-c3cnc4ncnn4c3)cn2)c1` [Example 189] the inhibition in vivo at 30 mg/kg [1] was > 90%.
`Cc1ncccc1-c1cnc(Oc2ccc(F)cc2)nc1` [Example 49] was tested, and the inhibition in vivo at 30 mg/kg [1] was > 90%.
With `Fc1ccccc1Oc1ncc(-c2ccc3ncnn3c2)cn1` [Example 144] the inhibition in vivo at 30 mg/kg [1] was > 90%.
With `Cc1cccc(Oc2ncc(-c3ccc(=O)[nH]c3)cn2)c1` [Example 106, 5-(2-(m-Tolyloxy)Pyrimidin-5-Yl)Pyridin-2 (1H)-One] the inhibition in vivo at 5 mg/kg [2] was > 90%.
With `OC1CCN(c2cnc(Oc3ccc(F)cc3)nc2)CC1` [Example 228] the inhibition in vivo at 30 mg/kg [1] was > 90%.
With `COc1nc(Oc2ccccc2)ncc1-c1ccc2nccn2c1` [Example 142] the inhibition in vivo at 30 mg/kg [1] was > 90%.
For `Fc1ccc(Oc2ncc(-c3ccc(C(F)(F)F)nn3)cn2)cc1` [Example 57], the inhibition in vivo at 30 mg/kg (po, 1 h) was > 90%.
In the case of `Fc1ccccc1Oc1ncc(-c2ccc3cnc(C(F)(F)F)n3c2)cn1` [Example 286], the inhibition in vivo at 30 mg/kg [1] is reported as > 90%.
Compound `O=c1ccn(-c2ccc(Oc3ccccc3)cc2)c(=O)[nH]1` [Example 322, 1-(4-Phenoxyphenyl)Pyrimidine-2,4 (1H,3H)-Dione] has an inhibition in vivo at 30 mg/kg [1] of 50 to 70%.
With `Cc1cccc(Oc2ncc(-c3ccc(C)nc3)cn2)c1` [Example 28] the inhibition in vivo at 30 mg/kg [1] was > 90%.
`Nc1cc(-c2cnc(Oc3cc(F)cc(F)c3)nc2)ccn1` [Example 82] was tested, and the inhibition in vivo at 30 mg/kg [1] was > 90%.
In the case of `Cc1nc2cc(-c3cnc(Oc4ccc(F)cc4)nc3)ccn2c1C` [Example 207], the inhibition in vivo at 30 mg/kg [1] is reported as > 90%.
In the case of `O=c1[nH]nccc1-c1cnc(Oc2ccccc2F)nc1` [Example 117], the inhibition in vivo at 30 mg/kg [1] is reported as > 90%.
In the case of `Cn1ccc2ccc(-c3cnc(Oc4ccccc4)nc3)nc21` [Example 215], the inhibition in vivo at 30 mg/kg [1] is reported as > 90%.
`COc1nc(Oc2ccccc2)ncc1-c1cccc2c1CC(=O)N2` [Example 273] was tested, and the inhibition in vivo at 30 mg/kg [1] was > 90%.
In the case of `O=C1CCC(c2cnc(Oc3cc(F)cc(F)c3)nc2)=NN1` [Example 105], the inhibition in vivo at 30 mg/kg [1] is reported as > 90%.
`Fc1ccccc1Oc1ncc(-c2ccc3cncn3c2)cn1` [Example 156] was tested, and the inhibition in vivo at 30 mg/kg [1] was > 90%.
For `O=c1ccc(-c2cnc(Oc3cccc(Cl)c3)nc2)n[nH]1` [Example 111], the inhibition in vivo at 30 mg/kg [1] was > 90%.
In the case of `O=C1CCN(c2cc(F)c(Oc3ccccc3)c(F)c2)C(=O)N1` [Example 330], the inhibition in vivo at 30 mg/kg [1] is reported as 50 to 70%.
In the case of `Cc1nc2ccc(-c3cnc(Oc4ccccc4F)nc3)cn2c1C` [Example 202], the inhibition in vivo at 30 mg/kg [1] is reported as > 90%.
With `c1ccc(Oc2ncc(-c3ccnc4ncccc34)cn2)cc1` [Example 139, 4-(2-Phenoxypyrimidin-5-Yl)-1,8-Naphthyridine] the inhibition in vivo at 30 mg/kg [1] was > 90%.
In the case of `Nc1ccc(-c2cnc(Oc3ccc(F)cc3F)nc2)cn1` [Example 86], the inhibition in vivo at 30 mg/kg [1] is reported as > 90%.
In the case of `Cc1cn2cc(-c3cnc(Oc4ccccc4F)nc3)ccc2n1` [Example 178], the inhibition in vivo at 30 mg/kg [1] is reported as > 90%.
`Fc1cccc(Oc2ncc(-c3ccc4nccn4n3)cn2)c1` [Example 125] was tested, and the inhibition in vivo at 30 mg/kg [1] was > 90%.
With `CN1C(=O)CCN(c2ccc(Oc3cccc(F)c3)cc2)C1=O` [Example 308, 1-(4-(3-Fluorophenoxy)Phenyl)-3-Methyldihydropyrimidine-2,4 (1H,3H)-Dione] the inhibition in vivo at 30 mg/kg [1] was 50 to 70%.
With `O=C1CCC(c2cnc(Oc3cccc(C(F)(F)F)c3)nc2)=NN1` [Example 100] the inhibition in vivo at 30 mg/kg [1] was > 90%.
In the case of `Cc1cn2ccc(-c3cnc(Oc4ccccc4F)nc3)cc2n1` [Example 182], the inhibition in vivo at 30 mg/kg [1] is reported as > 90%.
`Cn1ccc2cc(-c3cnc(Oc4ccccc4)nc3)ccc21` [Example 260] was tested, and the inhibition in vivo at 30 mg/kg [1] was > 90%.
With `Nc1ccc(-c2cnc(Oc3cc(F)cc(F)c3)nc2)nn1` [Example 41] the inhibition in vivo at 30 mg/kg [1] was > 90%.
For `FC(F)(F)c1cccc(Oc2ncc(-c3cccnc3)cn2)c1` [Example 14], the inhibition in vivo at 30 mg/kg [1] was > 90%.
For `COc1ccc(-c2cnc(Oc3cccc(Cl)c3)nc2)nn1` [Example 71], the inhibition in vivo at 30 mg/kg [1] was > 90%.
For `N#Cc1cccc(Oc2ncc(-c3ccc(N)nc3)cn2)c1` [Example 89], the inhibition in vivo at 30 mg/kg [1] was > 90%.
In the case of `O=C1NCCc2cc(-c3cnc(Oc4ccccc4)nc3)ccc21` [Example 247], the inhibition in vivo at 30 mg/kg [1] is reported as > 90%.
`c1ccc(Oc2ncc(-c3ccc4scnc4c3)cn2)cc1` [Example 241] was tested, and the inhibition in vivo at 30 mg/kg [1] was > 90%.
With `O=c1ccc(-c2cnc(Oc3cc(F)ccc3F)nc2)n[nH]1` [Example 108] the inhibition in vivo at 30 mg/kg [1] was > 90%.
In the case of `c1ccc(Oc2ncc(-c3ccc4cnccc4c3)cn2)cc1` [Example 251], the inhibition in vivo at 30 mg/kg [1] is reported as > 90%.
In the case of `Clc1cc2c(-c3cnc(Oc4ccccc4)nc3)cccc2cn1` [Example 268], the inhibition in vivo at 30 mg/kg [1] is reported as > 90%.
For `Cc1cn2cc(-c3cnc(Oc4cccc(F)c4)nc3)ccc2n1` [Example 179], the inhibition in vivo at 30 mg/kg [1] was > 90%.
In the case of `O=C1Cc2cc(-c3cnc(Oc4cccc(F)c4)nc3)ccc2N1` [Example 265], the inhibition in vivo at 30 mg/kg [1] is reported as > 90%.
In the case of `Nc1ccc(-c2cnc(Oc3c(F)cccc3F)nc2)cn1` [Example 52], the inhibition in vivo at 30 mg/kg [1] is reported as > 90%.
With `Fc1ccc(Oc2ncc(-c3ccn4cc(C(F)(F)F)nc4c3)cn2)cc1` [Example 219] the inhibition in vivo at 30 mg/kg [1] was > 90%.
`c1ccc(Oc2ncc(-c3ccncc3)cn2)cc1` [Example 9] was tested, and the inhibition in vivo at 5 mg/kg [2] was > 90%.
In the case of `c1ccc(Oc2ncc(-c3ccc4ncccc4c3)cn2)cc1` [Example 250], the inhibition in vivo at 30 mg/kg [1] is reported as > 90%.
In the case of `Fc1cccc(Oc2ncc(-c3ccn4nncc4c3)cn2)c1` [Example 186], the inhibition in vivo at 30 mg/kg [1] is reported as > 90%.
In the case of `c1ccc(Oc2ncc(-c3ccc4[nH]cnc4c3)cn2)cc1` [Example 257, 5-(2-Phenoxypyrimidin-5-Yl)-1H-Benzo[d]Imidazole Oxalate], the inhibition in vivo at 30 mg/kg [1] is reported as > 90%.
With `CC(C)(O)c1ccc(-c2cnc(Oc3ccccc3)nc2)nn1` [Example 69, 2-(6-(2-Phenoxypyrimidin-5-Yl)Pyridazin-3-Yl) Propan-2-Ol] the inhibition in vivo at 30 mg/kg [1] was > 90%.
For `Cc1cn2ccc(-c3cnc(Oc4cccc(F)c4)nc3)cc2n1` [Example 183], the inhibition in vivo at 30 mg/kg [1] was > 90%.
For `[O-][n+]1cccc(-c2cnc(Oc3ccccc3F)nc2)c1` [Example 60, 3-(2-(2-Fluorophenoxy)Pyrimidin-5-Yl)Pyridine 1-Oxide], the inhibition in vivo at 30 mg/kg [1] was > 90%.
In the case of `COc1ccc(-c2cnc(Oc3cc(F)cc(F)c3)nc2)nn1` [Example 19], the inhibition in vivo at 30 mg/kg [1] is reported as > 90%.
With `Fc1ccc(Oc2ncc(N3CCOCC3)cn2)cc1` [Example 225] the inhibition in vivo at 30 mg/kg [1] was > 90%.
With `Nc1nccc(-c2cnc(Oc3ccccc3)nc2)n1` [Example 75] the inhibition in vivo at 30 mg/kg [1] was > 90%.
In the case of `Fc1ccccc1Oc1ncc(-c2ccn3nncc3c2)cn1` [Example 185], the inhibition in vivo at 30 mg/kg [1] is reported as > 90%.
`Nc1ccc(-c2cnc(Oc3cc(F)cc(F)c3)nc2)cn1` [Example 53] was tested, and the inhibition in vivo at 30 mg/kg [1] was > 90%.
In the case of `O=C1CCC(c2cnc(Oc3c(F)cccc3F)nc2)=NN1` [Example 104], the inhibition in vivo at 30 mg/kg [1] is reported as > 90%.
